Like-named read-outs stand apart in the source and are kept apart here.
Assays:
androgen receptor (AR) [1] = target: T1, androgen receptor (AR) (Homo sapiens, UniProt P10275); assay: Degradation of androgen receptor (AR) protein in VCaP cells by Western blot; format: cell-based; conditions: percentage of degraded AR at 100 nM, VCaP cells, 16 h
T1 sequence (P10275 1-920): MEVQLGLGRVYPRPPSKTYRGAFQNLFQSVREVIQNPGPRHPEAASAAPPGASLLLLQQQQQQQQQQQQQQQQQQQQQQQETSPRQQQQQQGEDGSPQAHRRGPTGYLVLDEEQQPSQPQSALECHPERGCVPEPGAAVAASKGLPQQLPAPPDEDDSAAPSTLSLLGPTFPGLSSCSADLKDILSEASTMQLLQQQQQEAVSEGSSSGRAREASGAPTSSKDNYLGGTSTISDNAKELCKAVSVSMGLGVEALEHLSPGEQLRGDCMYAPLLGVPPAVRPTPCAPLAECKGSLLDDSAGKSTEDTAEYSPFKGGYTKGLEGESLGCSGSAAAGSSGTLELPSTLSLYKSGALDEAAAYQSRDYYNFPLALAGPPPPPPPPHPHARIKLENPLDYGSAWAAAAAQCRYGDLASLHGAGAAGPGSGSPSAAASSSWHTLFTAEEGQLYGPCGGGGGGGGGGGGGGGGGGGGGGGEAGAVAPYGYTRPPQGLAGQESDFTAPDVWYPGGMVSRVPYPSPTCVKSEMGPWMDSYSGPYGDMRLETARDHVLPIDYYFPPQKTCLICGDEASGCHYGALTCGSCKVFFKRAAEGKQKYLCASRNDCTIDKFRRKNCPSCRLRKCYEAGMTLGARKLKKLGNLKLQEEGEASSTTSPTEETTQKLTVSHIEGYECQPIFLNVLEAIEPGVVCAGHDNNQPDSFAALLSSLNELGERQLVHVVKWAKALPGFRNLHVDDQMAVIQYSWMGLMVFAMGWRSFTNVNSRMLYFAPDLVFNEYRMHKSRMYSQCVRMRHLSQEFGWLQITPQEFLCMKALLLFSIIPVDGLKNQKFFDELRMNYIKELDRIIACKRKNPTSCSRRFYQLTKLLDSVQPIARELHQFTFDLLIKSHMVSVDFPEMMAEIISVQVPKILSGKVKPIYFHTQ
Procedure: Determination of the Degradation Activity of the Compound on Androgen Receptor (AR) Protein by Western Blot
1) VCaP cells were subcultured in cell culture media, and then the cells in good growth condition were seeded in a 12-well plate at 1 ml/well (5×10^5 cells/well), and cultured overnight in a 37° C., 5% CO2 cell incubator. 2) The test compound was prepared into a 10 mM stock solution with dimethyl sulfoxide (DMSO). Prior to use, the solution was diluted 3 times with DMSO. […] of the diluted compound solution was added to the cell culture well (ensuring that the DMSO concentration in the culture system was 0.1%), and two wells were set for each concentration. The plate was gently shaken to mix. In addition, the experiment included negative control wells (containing equal amount of DMSO) and positive control wells. 3) After culturing 16 h. the cells were lysed with RIPA cell lysate, and the protein was extracted. The protein concentration was measured with BCA kit. 5-fold concentrated protein loading buffer was added, and after heated at 100° C. for 5 min. the sample was stored at −20° C. 4) for each well, 30 μg of protein was loaded on polyacrylamide gel for electrophoresis. 5) The protein was transferred from polyacrylamide gel to PVDF membrane, and then 5% skim milk was added to close for 1 h at room temperature. The first antibody (Androgen Receptor (D6F11) XP Rabbit mAb and Anti-β-Actin Rabbit mAb) was added and incubated overnight at 4° C. The membrane was washed with TBST solution three times. 10 min for each time. The secondary antibody (horseradish peroxidase labeled goat […]) was added and incubated at room temperature for 2 h, and then the membrane was washed with TBST solution three times. 10 min for each time.
Finally, ECL chemiluminescence solution was added, and then photos were taken with automatic chemiluminescence instrument to collect pictures for analysis.

androgen receptor (AR) [2] = target: T1, androgen receptor (AR); assay: Degradation of androgen receptor (AR) protein in VCaP cells by ELISA; format: cell-based; conditions: for DC50: read-out: DC50; for Dmax: VCaP
[3] = AR degradation, VCaP cells, 16 h, ELISA, Table 3-1
[4] = AR degradation, VCaP cells, 16 h, ELISA, Table 3-1, read-out: Dmax (%)

SMILES | inhibition at 0.1 µM (androgen receptor (AR) [1]) | further results
N#Cc1ccc(O[C@H]2CC[C@H](NC(=O)c3ccc(N4CCC(NC5CCN(c6ccc7c(c6)C(=O)N(C6CCC(=O)NC6=O)C7=O)CC5)CC4)nn3)CC2)cc1Cl (some centres unmarked) [Compound 118, N-((1r,4r)-4-(3-chloro-4-cyanophenoxy)cyclohexyl)-6-(4-((1-(2-(2,6-dioxopiperidin-3-yl)-1,3-dioxoisoindolin-5-yl)piperidine-4-yl)amino)piperidin-1-yl)pyridazine-3-amide] | 25 to 49% | 
N#Cc1ccc(O[C@H]2CC[C@H](NC(=O)c3ccc(N4CCC(O[C@@H]5CCN(c6ccc7c(c6)C(=O)N(C6CCC(=O)NC6=O)C7=O)C5)CC4)cc3)CC2)cc1Cl (some centres unmarked) [Compound 111] | < 25% | 
N#Cc1ccc(O[C@H]2CC[C@H](NC(=O)c3ccc(N4CC5CN(C6CCN(c7cc8c(cc7F)C(=O)N(C7CCC(=O)NC7=O)C8=O)CC6)CC5C4)nn3)CC2)cc1Cl (some centres unmarked) [Compound 67] | < 25% | 
CC1(C)[C@H](Oc2ccc(C#N)c(Cl)c2)C(C)(C)[C@H]1N1Cc2nc(C#CC3CCN(C4CCN(c5cc6c(cc5F)C(=O)N(C5CCC(=O)NC5=O)C6=O)CC4)CC3)ccc2C1=O (some centres unmarked) [Compound 316] | 25 to 49% | 
N#Cc1ccc(O[C@H]2C[C@@H]3CN(C(=O)c4ccc(N5CCC(CN6CCN(c7ccc8c(c7)C(=O)N(C7CCC(=O)NC7=O)C8=O)CC6)CC5)nn4)C[C@@H]3C2)cc1Cl (stereo partly drawn) [Compound 175, 2-chloro-4-(((3aR,5s,6aS)-2-(6-(4-((4-(2-(2,6-dioxopiperidin-3-yl)-1,3-dioxoisoindolin-5-yl)piperazin-1-yl)methyl)piperidin-1-yl)pyridazine-3-carbonyl)octahydrocyclopenta[c]pyrrol-5-yl)oxy)benzonitrile] | < 25% | 
N#Cc1ccc(OC2CCC(NC(=O)c3ccc(N4CCC(CN5CCC6(CC5)CN(c5ccc7c(c5)C(=O)N(C5CCC(=O)NC5=O)C7=O)C6)CC4)nn3)CC2)cc1Cl (centres unmarked) [Compound 230, N-((1r,4r)-4-(3-chloro-4-cyanophenoxy)cyclohexyl)-6-(4-((2-(2-(2,6-dioxopiperidin-3-yl)-1,3-dioxoisoindolin-5-yl)-2,7-diazaspiro[3.5]nonan-7-yl)methyl)piperidin-1-yl)pyridazine-3-carboxamide] |  | % degradation (androgen receptor (AR) [1]): A (>80%)
N#Cc1ccc(O[C@H]2CC[C@H](NC(=O)c3ccc(N4CCC(CN5CCC6(CC5)CN(c5ccc7c(c5)C(=O)N(C5CCC(=O)NC5=O)C7=O)C6)CC4)cc3)CC2)cc1Cl (some centres unmarked) [Compound 192] |  | DC50 (androgen receptor (AR) [2]; [3]): < 10 nM; Dmax (androgen receptor (AR) [2]; [4]): > 80%
N#Cc1ccc(O[C@H]2CC[C@H](NC(=O)c3ccc(N4CCC(CN5CCC6(CC5)CN(c5cc7c(cc5F)C(=O)N(C5CCC(=O)NC5=O)C7=O)C6)CC4)nn3)CC2)cc1 (some centres unmarked) [Compound 132, N-((1r,4r)-4-(4-cyanophenoxy)cyclohexyl)-6-(4-((2-(2-(2,6-dioxapiperidin-3-yl)-6-fluoro-1,3-dioxoisoindolin-5-yl)-2,7-diazaspiro[3.5]nonan-7-yl)methyl)piperidin-1-yl)pyridazine-3-carboxamide] |  | DC50 (androgen receptor (AR) [2]; [3]): 10 to 100 nM; Dmax (androgen receptor (AR) [2]): 60 to 80%
CC1(C)[C@H](Oc2ccc(C#N)c(Cl)c2)C(C)(C)[C@H]1N1Cc2nc(C#CC3CC(N4CC5CN(c6cc7c(cc6F)C(=O)N(C6CCC(=O)NC6=O)C7=O)CC5C4)C3)ccc2C1=O (some centres unmarked) [Compound 360] |  | DC50 (androgen receptor (AR) [2]; [3]): 10 to 100 nM; Dmax (androgen receptor (AR) [2]; [4]): 60 to 80%
CC1(C)[C@H](Oc2ccc(C#N)c(Cl)c2)C(C)(C)[C@H]1N1Cc2nc(C#CC3CCC(N4CC5(CCN(c6ccc7c(c6)C(=O)N(C6CCC(=O)NC6=O)C7=O)C5)C4)CC3)ccc2C1=O (some centres unmarked) [Compound 369, 2-Chloro-4-((1r,3r)-3-(2-((4-(6-(2-(2,6-dioxopiperidin-3-yl)-1,3-dioxoisoindolin-5-yl)-2,6-diazaspiro[3.4]octane-2-yl)cyclohexyl)ethynyl)-5-oxo-5,7-dihydro-pyrrolo[3,4-b]pyridin-6-yl)-2,2,4,4-tetramethylcyclobutoxy) benzonitrile] |  | Dmax (%) (androgen receptor (AR) [2]; [3]): +++ (80%-60%); DC50 (androgen receptor (AR) [2]; [3]): 10 to 100 nM
CC1(C)[C@H](Oc2ccc(C#N)c(Cl)c2)C(C)(C)[C@H]1N1Cc2nc(C#CC3CCC(N4CC5CN(c6cc7c(cc6F)C(=O)N(C6CCC(=O)NC6=O)C7=O)CC5C4)CC3)ccc2C1=O (some centres unmarked) [Compound 340] |  | DC50 (androgen receptor (AR) [2]; [3]): < 10 nM; Dmax (androgen receptor (AR) [2]; [4]): > 80%

Further lines, with some results ahead:

inhibition at 0.1 µM (androgen receptor (AR) [1]) | SMILES | further results
< 25% | N#Cc1ccc(OC2CC3(CC(NC(=O)c4ccc(N5CCC(CN6CCN(c7ccc8c(c7)C(=O)N(C7CCC(=O)NC7=O)C8=O)CC6)CC5)nn4)C3)C2)cc1Cl (centres unmarked) [Compound 109] | 
50 to 79% | N#Cc1ccc(O[C@H]2CC[C@H](NC(=O)c3cnc(N4CC(N5CC6CN(c7cc8c(cc7F)C(=O)N(C7CCC(=O)NC7=O)C8=O)CC6C5)C4)cn3)CC2)cc1Cl (some centres unmarked) [Compound 225, N-((1r,4r)-4-(3-chloro-4-cyanophenoxy)cyclohexyl)-5-(3-(5-(2-(2,6-dioxopiperidin-3-yl)-6-fluoro-1,3-dioxoisoindolin-5-yl)hexahydropyrrolo[3,4-c]pyrrol-2(1H)-yl)azitidin-1-yl)pyrazine-2-carboxamide] | 
25 to 49% | N#Cc1ccc(O[C@H]2CC[C@H](NC(=O)c3ccc(N4CCC(CN5CC6CN(c7ccc8c(c7)C(=O)N(C7CCC(=O)NC7=O)C8=O)CC6C5)CC4)nn3)CC2)cc1Cl (some centres unmarked) [Compound 252, N-((1r,4r)-4-(3-chloro-4-cyanophenoxy)cyclohexyl)-6-(4-((5-(2-(2,6-dioxopiperidin-3-yl)-1,3-dioxoisoindolin-5-yl)Hexahydropyrrolo[3,4-c]pyrrol-2(11H)-yl)methyl)piperidin-1-yl)pyridazine-3-formamide] | 
> 80% | N#Cc1ccc(O[C@H]2CC[C@H](NC(=O)c3ccc(N4CCC(N5CC6(CCN(c7cc8c(cc7F)C(=O)N(C7CCC(=O)NC7=O)C8=O)C6)C5)CC4)nn3)CC2)cc1Cl (some centres unmarked) [Compound 103, N-((1r,4r)-4-(3-chloro-4-cyanophenoxy)cyclohexyl)-6-(4-(6-(2-(2,6-dioxopiperidin-3-yl)-6-fluoro-1,3-dioxoisoindolin-5-yl)-2,6-diazaspiro[3.4]octane-2-yl)piperidin-1-yl)pyridazine-3-formamide] | 
> 80% | N#Cc1ccc(O[C@H]2CC[C@H](NC(=O)c3ccc(N4CCC(CN5CCC6(C5)CN(c5cc7c(cc5F)C(=O)N(C5CCC(=O)NC5=O)C7=O)C6)CC4)nn3)CC2)cc1Cl (some centres unmarked) [Compound 184, N-((1r,4r)-4-(3-chloro-4-cyanophenoxy)cyclohexyl)-6-(4-((2-(2-(2,6-dioxopiperidin-3-yl)-6-fluoro-1,3-dioxoisoindolin-5-yl)-2,6-diazaspiro[3.4]octan-6-yl)methyl)piperidin-1-yl)pyridazine-3-formamide] | 
50 to 79% | N#Cc1ccc(O[C@H]2CC[C@H](NC(=O)c3ccc(N4CC(CN5CC6CN(c7cc8c(cc7F)C(=O)N(C7CCC(=O)NC7=O)C8=O)CC6C5)C4)nn3)CC2)cc1Cl (some centres unmarked) [Compound 137] | 
50 to 79% | N#Cc1ccc(O[C@H]2CC[C@H](NC(=O)c3ccc(N4CCC(N5CC6CN(c7ccc8c(c7)C(=O)N(C7CCC(=O)NC7=O)C8=O)CC6C5)CC4)nn3)CC2)cc1Cl (some centres unmarked) [Compound 62, N-((1r,4r)-4-(3-chloro-4-cyanophenoxy)cyclohexyl)-6-(4-(5-(2-(2,6-dioxopiperidin-3-yl)-1,3-dioxoisoindolin-5-yl)hexahydropyrrolo[3,4-c]pyrrol-2(1H)-yl)piperidin-1-yl)pyridazine-3-carboxamide] | 

Reference: patent US20230091225A1, “Bifunctional chimeric heterocyclic compounds for targeted degradation of androgen receptors and use thereof” (HINOVA PHARMACEUTICALS INC., priority 2019, published 2023)
